Results on one substance are retold here after patent US20150111864A1, “CRYSTALLINE FORM OF A BETA-LACTAMASE INHIBITOR” (Cubist Pharmaceuticals, Inc., priority 2013, published 2015).

The subject of experiment [1] is Pae.2757 (AmpC over-expn, clinical). The experiment is described as follows: Standard BLI Potentiation MIC Assay in Combination with Ceftolozane. Type of experiment: cell-based, Pseudomonas aeruginosa. The settings on record: Pae.2757, AmpC over-expn, clinical; BLI at 4 μg/mL. As to the method:
(§1) The experimental protocol was performed according to Clinical and Laboratory Standards Institute (CLSI) guidelines with modifications as described below (CLSI guidelines can be derived from the CLSI document M07-A9 published in January 2012: “Methods for Dilution Antimicrobial Susceptibility Tests for Bacteria That Grow Aerobically; Approved Standard-Ninth Edition”).
(§2) Frozen glycerol stocks of laboratory engineered, isogenic E. coli strains, which contain cloned β-lactamase expressing plasmids were used to streak for isolated colonies on rich, selective LB agar supplemented with 25 μg/mL tetracycline to maintain the plasmid. All strains were incubated at 37° C. for 18-24 hrs.
(§3) On the day of testing, primary cultures were started by scraping off 5-10 colonies from the TSAB plates containing clinical strains or the tetracycline supplemented LB plates containing engineered strains. The clinical strain material was suspended in ˜5 mL of cation adjusted Mueller Hinton Broth (CAMHB) in 14 mL culture tubes. The engineered strain material was suspended in CAMHB (supplemented with 25 μg/mL tetracycline) in 14 mL culture tubes. All strains were incubated at 37° C. with aeration (200 rpm) for ˜2 hrs until the optical density at 600 nm (OD600) was ≧0.1.
(§4) The two compound components of the assay were each diluted in CAMHB and added to the 96-well broth microdilution assay plates. 50 μL of the β-lactam was added to each well of the assay plate in 2-fold dilutions with final concentrations ranging from 128 to 0.13 μg/mL. 25 μL of the BLI compound was added to all wells in the broth microdilution plates at a final concentration of 4 μg/mL. Inoculum cultures were prepared by standardizing the primary cultures to OD600=0.1 and then adding 20 μL of the adjusted primary culture per 1 mL CAMHB for clinical strains or CAMHB (supplemented with tetracycline at 100 μg/mL) for engineered strains, so that the final inoculum density was ˜10^5 colony forming units per milliliter. Diluted inoculum cultures were used to inoculate 25 μL per well in 96-well broth microdilution assay plates. The final volume of each well was 100 μL and contained a β-lactam at different concentrations, a BLIcompound at 4 μg/mL concentration, the bacterial culture at an OD600 of approximately 0.001 and when necessary tetracycline at 25 μg/mL.
(§5) Plates were incubated for 18-20 hours at 37° C. with aeration (200 rpm). Following incubation, growth was confirmed visually placing plates over a viewing apparatus (stand with a mirror underneath) and then OD600 was measured using a SpectraMax 340PC384 plate reader (Molecular Devices, Sunnyvale, Calif.). Growth was defined as turbidity that could be detected with the naked eye or achieving minimum OD600 of 0.1. MIC values were defined as the lowest concentration producing no visible turbidity.

Experiment [2] relates to Pae.2885 (AmpC, clinical). The experiment is described as above. Type of experiment: cell-based, Pseudomonas aeruginosa. Particulars: Pae.2885, AmpC, clinical; BLI at 4 μg/mL. As to the method:
as §1, §2, §3, §4, §5

Experiment [3] relates to Pae.2863 (AmpC de-repress, clinical). The description is as above. It is filed as cell-based, Pseudomonas aeruginosa. Particulars: Pae.2863, AmpC de-repress, clinical; BLI at 4 μg/mL. As for the experimental part: as §1, §2, §3, §4, §5
Experiment [4] concerns Eco.2843 (DHA-1, isogenic). The experiment is described as above. The settings on record: Eco.2843, DHA-1, isogenic; BLI at 4 μg/mL. Type of experiment: cell-based, Escherichia coli. As for the experimental part:
as §1, §2, §3, §4, §5

Experiment [5] relates to Eco.2491 (CMY-2, clinical). The description is as above. Type of experiment: cell-based, Escherichia coli. Particulars: Eco.2491, CMY-2, clinical; BLI at 4 μg/mL. As for the experimental part: as §1, §2, §3, §4, §5
Experiment [6] deals with Eco.2845 (OXA-15, isogenic). The experiment is described as above. It is filed as cell-based, Escherichia coli. Particulars: Eco.2845, OXA-15, isogenic; BLI at 4 μg/mL. As to the method: as §1, §2, §3, §4, §5
For a further experiment, the system named is Cfr.568 (AmpC, clinical). The experiment is described as above. Type of experiment: cell-based, Citrobacter spp. The settings on record: Cfr.568, AmpC, clinical; BLI at 4 μg/mL. As for the experimental part:
as §1, §2
(§6) On the day of testing, primary cultures were started by scraping off 5-10 colonies from the TSAB plates containing clinical strains or the tetracycline supplemented LB plates containing engineered strains. […]
(§7) Plates were incubated for 18-20 hours at 37° C. with aeration (200 rpm). Following incubation, growth was confirmed visually placing plates over a viewing apparatus (stand with a mirror underneath) and then OD600 was measured using a SpectraMax 340PC384 plate reader (Molecular Devices, Sunnyvale, Calif.). Growth was defined as turbidity that could be detected with the naked eye or achieving minimum OD600 of 0.1. […]

For experiment [7], the system named is Panel of Isogenic and Clinical Strains Expressing β-Lactamases. The experiment is described as follows: Standard BLI Potentiation MIC Assay in Combination with Ceftolozane, whole panel. Type of experiment: cell-based. The settings on record: panel of 24 strains; BLI at 4 μg/mL. As to the method: as §1, §2, §3, §4, §7
Another experiment deals with Ecl.569 (AmpC, clinical). Description: Standard BLI Potentiation MIC Assay in Combination with Ceftolozane. Type of experiment: cell-based, Enterobacter spp. The settings on record: Ecl.569, AmpC, clinical; BLI at 4 μg/mL. As for the experimental part:
as §1, §2, §6, §7

The test system of experiment [8] is Eco isogenic strain expressing SHV-12. The experiment is described as follows: Synergy MIC (sMIC) assay. Particulars: β-Lactam CXA-101 at 4 μg/mL; SHV-12, isogenic Eco. Type of experiment: cell-based, Escherichia coli. As for the experimental part:
(§8) The synergy MIC (sMIC) assay determines the concentration of the BLI required to potentiate the activity of a fixed concentration of a β-lactam antibiotic against β-lactamase producing bacterial strains. The experimental protocol was performed according to Clinical and Laboratory Standards Institute (CLSI) guidelines with modifications as described below (CLSI guidelines can be derived from the CLSI document M07-A9 published in January 2012: “Methods for Dilution Antimicrobial Susceptibility Tests for Bacteria That Grow Aerobically; Approved Standard-Ninth Edition”). The assay wa set-up by serially diluting the BLI across 11 of the 12 wells in each row of a 96-well broth microdilution assay plate, adding the β-lactam at a fixed concentration to all wells in the assay plate, inoculating the assay plate with bacterial strains, and determining the lowest concentration of BLI required to inhibit overnight bacterial growth.
as §2
(§9) On the day of testing, primary cultures were started by scraping off 5-10 colonies from the TSAB plates containing clinical strains or the tetracycline supplemented LB plates containing engineered strains. The clinical strain material was suspended in ˜5 mL of cation adjusted Mueller Hinton Broth (CAMHB) in 14 mL culture tubes. The engineered strain material was suspended in CAMHB (supplemented with tetracycline at 25 μg/mL) in 14 mL culture tubes. All strains were incubated at 37° C. with aeration (200 rpm) for ≧2 hrs until the OD600 was ≧0.1.
(§10) The two compound components of the assay were each prepared in CAMHB and added to the 96-well broth microdilution assay plates. 50 μL of the BLI was added to each well of the assay plate in 2-fold dilutions with final concentrations ranging from 128 to 0.13 μg/mL. 25 μL of the β-lactam was added to all wells in the broth microdilution plates at a final concentration of 4 μg/mL. Inoculum cultures were prepared by standardizing the primary cultures to OD600=0.1 and then adding 20 μL of the adjusted primary culture per 1 mL CAMHB for clinical strains or CAMHB (supplemented with tetracycline at 100 μg/mL) for isogenic strains, so that the final inoculum density was ˜10^5 colony forming units per milliliter. Diluted inoculum cultures were used to inoculate 25 μL per well in 96-well broth microdilution assay plates. The final volume of each well was 100 μL and contained a BLI at different concentrations, a β-lactam at 4 μg/mL concentration, the bacterial culture at an OD600 of approximately 0.001 and when necessary tetracycline at 25 ug/mL.
(§11) Plates were incubated for 18-20 hours at 37° C. with aeration (200 rpm). Following incubation, growth was confirmed visually placing plates over a viewing apparatus (stand with a mirror underneath) and then OD600 was measured using a SpectraMax 340PC384 plate reader (Molecular Devices, Sunnyvale, Calif.). Growth was defined as turbidity that could be detected with the naked eye or achieving minimum OD600 of 0.1. sMIC values were defined as the lowest concentration producing no visible turbidity. […]

The subject of experiment [9] is Eco isogenic strain expressing OXA-15. Description: Synergy MIC (sMIC) assay. It is filed as cell-based, Escherichia coli. The settings on record: β-Lactam CXA-101 at 4 μg/mL; OXA-15, isogenic Eco. As to the method: as §8, §2, §9, §10, §11
Experiment [10] deals with Eco isogenic strain expressing CTX-M-15. Description: Synergy MIC (sMIC) assay. It is filed as cell-based, Escherichia coli. Particulars: β-Lactam CXA-101 at 4 μg/mL; CTX-M-15, isogenic Eco. As to the method:
as §8, §2, §9, §10, §11

Experiment [11] deals with Eco isogenic strain expressing P99. The experiment is described as follows: Synergy MIC (sMIC) assay. Particulars: β-Lactam CXA-101 at 4 μg/mL. Type of experiment: cell-based, Escherichia coli. As for the experimental part: as §8, §2, §9, §10, §11
The subject of experiment [12] is Eco isogenic strain, β-Lactamase none. The experiment is described as follows: Synergy MIC (sMIC) assay. It is filed as cell-based, Escherichia coli. The settings on record: β-Lactam none. As to the method: as §8, §2, §9, §10, §11

In the case of “(2S,5R)-2-(5-(3-aminopropyl)-1,3,4-oxadiazol-2-yl)-7-oxo-1,6-diazabicyclo[3.2.1]octan-6-yl hydrogen sulfate [ψ]”, the “MIC of Ceftolozane in combination with BLI” value in [1] is recorded as “B (B = 1-2 μg/mL)”; in [2] it was “A (A = 0.25-0.5 μg/mL)”; in experiment [3], “B (B = 1-2 μg/mL)”; in experiment [4] it was “AA (AA = <0.25 μg/mL)”; in [5], “AA (AA = <0.25 μg/mL)”; in [6], “B (B = 1-2 μg/mL)”. The “MIC of Ceftolozane in combination with BLI” value is on record as “A (A = 0.25-0.5 μg/mL)” in the experiment with Cfr.568 (AmpC, clinical) and “A (A = 0.25-0.5 μg/mL)” with Ecl.569 (AmpC, clinical). Further, the “MIC50 of Ceftolozane in combination with BLI” value in experiment [7] is recorded as “A (A = 0.25-0.5 μg/mL)”. The “MIC90 of Ceftolozane in combination with BLI” value in experiment [7] is reported as “B (B = 1-2 μg/mL)”. Besides, the sMIC entry is “B (B = 1-2 μg/mL)” in experiment [8]; “B (B = 1-2 μg/mL)” in experiment [9]; “A (A = 0.25-0.5 μg/mL)” in [10]; “B (B = 1-2 μg/mL)” in experiment [11]; “D (D = 16-32 μg/mL)” in [12].
